Data: patent US10800733B2, “Acetophenone compound, preparation method therefor, and application thereof in blood lipid regulation” (Shanghai Bioenergy Medicine Science & Technology Co., Ltd., priority 2017, dated 2020)

System: hyperlipidemia of SD rats
Test: Therapeutic effect on hyperlipidemia of SD rats (lipid emulsion model)
Format: in vivo
Details: for HDL-C (high density lipoprotein) / LDL-C (low density lipoprotein) / TG (serum triglyceride) / CHO (serum cholesterol): 21 days of continuous administration with lipid emulsion, fasted 12 h, serum, X ± SD, 5 animals per group; for blood lipid-reducing effect (in words) / reduction ratio of cholesterol (blood lipid-reducing effect): 21 days; for blood lipid-reducing effect (in words): hyperlipidemic SD rats, as shown by Table 1; for reduction ratio of cholesterol (blood lipid-reducing effect): (CHO of Model group - CHO of pharmaceutical-administrated group)/CHO of Model group*100%
Experimental: 1. Therapeutic Effect on Hyperlipidemia of SD Rats
Preparation process of lipid emulsion: 500 g of lard oil was taken, placed in a container, and heated to melt. When the temperature rose to 100° C., 200 g of cholesterol was added. After complete dissolution, 20 g of propylthiouracil was further added. The resulted mixture was stirred well, and added with 500 ml of Tween 80 after dissolution, resulting in an oil phase. At the same time, 600 mL of distilled water and 400 mL of 1,2-propanediol were taken and heated to 60° C. in a water bath, and then was added with 40 g of sodium deoxycholate. The resulted mixture was stirred well until complete dissolution was achieved, so as to give an aqueous phase. The aqueous phase was added into the oil phase and mixed well to give a lipid emulsion.
Process for modeling: Animals were fed adaptively for 3 days. Then, according to the body weight, 5 animals were selected as control and the remaining animals were intragastrically administered with the lipid emulsion during 9:00 to 11:00 am every day with 1 mL/100 g body weight for 2 weeks. After fasted for 12 hours, 1 mL of blood was collected from the orbits of the animals, and was determined by Hitachi Automatic Biochemical Analyzer 7080 for serum cholesterol (CHO), triglyceride (TG), low density lipoprotein (LDL-C) and high density lipoprotein (HDL-C). The animals having 4-7 mmol/L of CHO were used in the experiments.
The animals were continued with the intragastric administration of the lipid emulsion, and at the same time, the pharmaceutical-administered groups were administrated with the corresponding doses of pharmaceuticals, while the Model group was administrated with an equal volume of the solvent. The animals were administrated with the lipid emulsion in the morning and pharmaceuticals in the afternoon. The animals were measured for the body weight every Monday, and were observed. After 21 days of continuous administration, the animals were fasted for 12 hours. Then, 1 mL of blood was collected from the orbits, and was determined by Hitachi Automated Biochemical Analyzer 7080 for serum cholesterol (CHO), triglyceride (TG), low density lipoprotein (LDL-C) and high density lipoprotein (HDL-C).
The controls used in this experiment comprised Compound A and Simvastatin (also referred to as Sim herein).
The formula for calculating the blood lipid-reducing effect is: (CHO of Model group —CHO of pharmaceutical-administrated group)/CHO of Model group*100%. […] In this experiment, the effects of the compounds obtained herein for regulating blood lipids can be determined by using the blood cholesterol reduction as the main indicator, with reference to the decrease of triglyceride.

CC(=O)c1ccc(NC(=O)C(C)(C)CCCOc2cc(C)ccc2C)cc1 [Compound 01]
HDL-C (high density lipoprotein) (80 mg/kg): 2.02 ± 0.27 mmol/L
LDL-C (low density lipoprotein) (80 mg/kg): 3.07 ± 1.25 mmol/L
TG (serum triglyceride) (80 mg/kg): 0.47 ± 0.27 mmol/L
blood lipid-reducing effect (in words) (80 mg/kg): significantly reduce the level of cholesterol
reduction ratio of cholesterol (blood lipid-reducing effect) (80 mg/kg): 59.75%

CC(=O)c1ccc(O)c(NC(=O)C(C)(C)CCCOc2cc(C)ccc2C)c1 [Compound 02]
CHO (serum cholesterol) (80 mg/kg): 4.86 ± 1.08 mmol/L
HDL-C (high density lipoprotein) (80 mg/kg): 1.94 ± 0.49 mmol/L
LDL-C (low density lipoprotein) (80 mg/kg): 3.18 ± 0.71 mmol/L
TG (serum triglyceride) (80 mg/kg): 0.51 ± 0.19 mmol/L
blood lipid-reducing effect (in words) (80 mg/kg): significantly reduce the level of cholesterol
reduction ratio of cholesterol (blood lipid-reducing effect) (80 mg/kg): 54.40%

CC(=O)c1ccc(O)c(NC(=O)c2cccnc2)c1 [Compound 03]
CHO (serum cholesterol) (80 mg/kg): 4.56 ± 1.24 mmol/L
HDL-C (high density lipoprotein) (80 mg/kg): 1.81 ± 0.27 mmol/L
LDL-C (low density lipoprotein) (80 mg/kg): 3.14 ± 1.06 mmol/L
TG (serum triglyceride) (80 mg/kg): 0.71 ± 0.16 mmol/L
blood lipid-reducing effect (in words) (80 mg/kg): significantly reduce the level of cholesterol
reduction ratio of cholesterol (blood lipid-reducing effect) (80 mg/kg): 57.22%

CC(=O)c1ccc(NC(=O)C(C)(C)Oc2ccc(Cl)cc2)cc1 [Compound 04]
CHO (serum cholesterol) (80 mg/kg): 4.90 ± 1.09 mmol/L
HDL-C (high density lipoprotein) (80 mg/kg): 2.00 ± 0.52 mmol/L
LDL-C (low density lipoprotein) (80 mg/kg): 3.27 ± 1.34 mmol/L
TG (serum triglyceride) (80 mg/kg): 0.50 ± 0.15 mmol/L
blood lipid-reducing effect (in words) (80 mg/kg): significantly reduce the level of cholesterol
reduction ratio of cholesterol (blood lipid-reducing effect) (80 mg/kg): 54.03%

CC(=O)c1ccc(O)c(OC(=O)c2cccnc2)c1 [Compound 05]
CHO (serum cholesterol) (80 mg/kg): 4.63 ± 0.41 mmol/L
HDL-C (high density lipoprotein) (80 mg/kg): 1.95 ± 0.50 mmol/L
LDL-C (low density lipoprotein) (80 mg/kg): 3.12 ± 0.34 mmol/L
TG (serum triglyceride) (80 mg/kg): 0.56 ± 0.23 mmol/L
blood lipid-reducing effect (in words) (80 mg/kg): significantly reduce the level of cholesterol
reduction ratio of cholesterol (blood lipid-reducing effect) (80 mg/kg): 56.56%

Cc1ccc(C)c(OCCCC(C)(C)C(=O)NCC(=O)c2ccc(O)cc2)c1 [Compound A, reference compound]
CHO (serum cholesterol) (80 mg/kg): 6.15 ± 2.12 mmol/L
HDL-C (high density lipoprotein) (80 mg/kg): 1.41 ± 0.28 mmol/L
LDL-C (low density lipoprotein) (80 mg/kg): 4.97 ± 1.07 mmol/L
TG (serum triglyceride) (80 mg/kg): 0.58 ± 0.11 mmol/L
reduction ratio of cholesterol (blood lipid-reducing effect) (80 mg/kg): 42.30%

CCC(C)(C)C(=O)O[C@H]1C[C@@H](C)C=C2C=C[C@H](C)[C@H](CC[C@@H]3C[C@@H](O)CC(=O)O3)[C@H]21 [Sim, Simvastatin, reference compound]
CHO (serum cholesterol) (10 mg/kg): 6.28 ± 0.76 mmol/L
HDL-C (high density lipoprotein) (10 mg/kg): 1.65 ± 0.26 mmol/L
LDL-C (low density lipoprotein) (10 mg/kg): 4.54 ± 0.36 mmol/L
TG (serum triglyceride) (10 mg/kg): 0.60 ± 0.07 mmol/L
